Source: patent US20220268760A1, “ATRIAL CARDIAC MICROTISSUES FOR CHAMBER-SPECIFIC ARRHYTHMOGENIC TOXICITY RESPONSES” (Brown University, priority 2021, published 2022)

What was measured:
[1] = tested on: 3D atrial microtissues (spontaneous activity, If channel); experiment: Spontaneous action potential activity of atrial microtissues without electrical stimulation; type: cell-based, human
Procedure: 3D microtissue generation. Sterile 2% (wt/vol) agarose in PBS were pipetted into 35-microwell molds with hemispherical bottoms (FIG. 1C; 3D Petri Dish®, MicroTissues Inc., see MilliporeSigma, St. Louis, Mo., USA). After casted, hydrogels equilibrated in RPMI/B27 media with 1% Pen/Strep overnight in an incubator. Lactate-purified hiPSC-cardiomyocytes were then harvested, singularized, and suspended in RPMI/B27 media with 10% FBS and 1% Pen/Strep, collecting a subset of the cells for flow cytometry analysis of cTnT and MLC2v expression. […] Cells were allowed to settle into the cylindrical recesses for 30 minutes before adding media supplemented with 5 μM ROCK Inhibitor. Culture medium was changed one day post-seeding and replaced every other day. Self-assembling, spheroidal, and scaffold-free 3D microtissues were electrically field stimulated for six-eight days with a 1 Hz, 10.0 V, and 4.0 milliseconds duration bipolar pulse train (C-Pace EP, IonOptix, Westwood, Mass., USA) to precondition the microtissues before optical mapping. […] et al., Proc. Natl. Acad. Sci., U.S.A., 101, 18129-18134 (2004). The 3D microtissues beat synchronously with 1 Hz stimulation within two days, and tissue compaction were observed within three days post-seeding. Optical mapping of cardiac action potential. The inventors transferred hydrogels containing microtissues to a Petri dish on a temperature-controlled chamber (Dual Automatic Temperature Controller TC-344B, Warner Instrument, Hamden, Conn., USA) to maintain ambient temperatures of 35±1° C. throughout imaging. Microtissues were gently perfused in a solution containing (in mM) 140 NaCl, 5.1 KCl, 1 MgCl2, 1 CaCL2, 0.33 NaH2PO4, 5 HEPES, and 7.5 glucose warmed with an inline heater. Microtissues were allowed to equilibrate in the perfusion solution for thirty minutes and subsequently labeled with a voltage-sensitive dye (5 μM di-4-ANEPPS) for five minutes to enable membrane potential (Vm) recordings of action potential. Excess residual dyes were washed out thoroughly before data collection. An active-pixel sensor (CMOS sensor) camera acquired fluorescence images at 1000 frames-per-second, and action potential traces were reconstructed from fluorescence intensity data. Semi-automated analyses of action potential parameters were conducted using an in-house analysis software and included rise time, […] to maximum repolarization rate ([…]), and APD triangulation ([…]). Screening of arrhythmogenic compounds. […] Three molds of microtissues (two atrial cardiomyocytes and one ventricular cardiomyocytes) were used to test the compound 4-aminopyridine under 1 Hz electrical stimulation with a platinum field electrode (Myopacer EP field stimulator, IonOptix, Westwood, Mass., USA). […]

[2] = tested on: 3D atrial microtissues (hiPSC-atrial cardiomyocytes with 5% human cardiac fibroblasts); experiment: Optical mapping of action potentials of 3D atrial microtissues under 1 Hz pacing; type: cell-based; details: for APD30 / APD50 / APD80 / APDMxR / APDTri/APDMxR / Rise Time: mean ± SD
Procedure: (§1) 3D microtissue generation. Sterile 2% (wt/vol) agarose in PBS were pipetted into 35-microwell molds with hemispherical bottoms (FIG. 1C; 3D Petri Dish®, MicroTissues Inc., see MilliporeSigma, St. Louis, Mo., USA). After casted, hydrogels equilibrated in RPMI/B27 media with 1% Pen/Strep overnight in an incubator. Lactate-purified hiPSC-cardiomyocytes were then harvested, singularized, and suspended in RPMI/B27 media with 10% FBS and 1% Pen/Strep, collecting a subset of the cells for flow cytometry analysis of cTnT and MLC2v expression. […] Cells were allowed to settle into the cylindrical recesses for 30 minutes before adding media supplemented with 5 μM ROCK Inhibitor. Culture medium was changed one day post-seeding and replaced every other day. Self-assembling, spheroidal, and scaffold-free 3D microtissues were electrically field stimulated for six-eight days with a 1 Hz, 10.0 V, and 4.0 milliseconds duration bipolar pulse train (C-Pace EP, IonOptix, Westwood, Mass., USA) to precondition the microtissues before optical mapping. […] et al., Proc. Natl. Acad. Sci., U.S.A., 101, 18129-18134 (2004). The 3D microtissues beat synchronously with 1 Hz stimulation within two days, and tissue compaction were observed within three days post-seeding. Optical mapping of cardiac action potential. The inventors transferred hydrogels containing microtissues to a Petri dish on a temperature-controlled chamber (Dual Automatic Temperature Controller TC-344B, Warner Instrument, Hamden, Conn., USA) to maintain ambient temperatures of 35±1° C. throughout imaging. Microtissues were gently perfused in a solution containing (in mM) 140 NaCl, 5.1 KCl, 1 MgCl2, 1 CaCL2, 0.33 NaH2PO4, 5 HEPES, and 7.5 glucose warmed with an inline heater. Microtissues were allowed to equilibrate in the perfusion solution for thirty minutes and subsequently labeled with a voltage-sensitive dye (5 μM di-4-ANEPPS) for five minutes to enable membrane potential (Vm) recordings of action potential. Excess residual dyes were washed out thoroughly before data collection. An active-pixel sensor (CMOS sensor) camera acquired fluorescence images at 1000 frames-per-second, and action potential traces were reconstructed from fluorescence intensity data. Semi-automated analyses of action potential parameters were conducted using an in-house analysis software and included rise time, […] to maximum repolarization rate ([…]), and APD triangulation ([…]). Screening of arrhythmogenic compounds. […] Three molds of microtissues (two atrial cardiomyocytes and one ventricular cardiomyocytes) were used to test the compound 4-aminopyridine under 1 Hz electrical stimulation with a platinum field electrode (Myopacer EP field stimulator, IonOptix, Westwood, Mass., USA). […] At each dose, the microtissues were allowed to respond to the drug for five-ten minutes before action potential recordings were acquired. At least ten seconds of data were acquired per microtissue at each dose. Instead, three molds of atrial microtissues were used to test the compound ivabradine without electrical stimulation to investigate how action potential properties and spontaneous activity were altered in response to the drug.

[3] = tested on: 3D ventricular microtissues (hiPSC-ventricular cardiomyocytes with 5% human cardiac fibroblasts); experiment: Optical mapping of action potentials of 3D ventricular microtissues under 1 Hz pacing; type: cell-based; details: for APD30 / APD50 / APD80 / APDTri/APDMxR / Rise Time / APDMxR: mean ± SD
Procedure: as §1

[4] = tested on: hiPSC-derived cardiomyocytes (MLC2v); experiment: Flow cytometry of MLC2v expression in hiPSC-cardiomyocytes; type: cell-based, human; details: supplementation at days 3-6 of differentiation; without it 31±0.2, p<0.05; in % (unit assumed)
Procedure: Cardiomyocyte differentiation. The inventors differentiated atrial and ventricular cardiomyocytes ([…] ) from GCaMP6f-expressing human induced pluripotent stem cells (hiPSCs; WTC human iPSCs, Gladstone Institutes, San Francisco, Calif., USA) using small molecule modulations of Wnt signaling, as described previously by Burridge et al., Nature Methods, 11, 855-860 (2014), with slight modifications. hiPSCs were cultured on vitronectin coated plates in Essential 8 Medium (E8 media; Thermo Fisher Scientific, Waltham, Calif., USA). Before starting differentiation, hiPSCs were singularized, seeded onto Matrigel-coated plates in E8 media with 5 μM ROCK Inhibitor (RI; Thermo Fisher Scientific, Waltham, Calif., USA) and cultured to 80% confluency, at which point the cells were treated with 4.5 μM CHIR 99021 (Tocris Bioscience, Minneapolis, Minn., USA), a glycogen synthase kinase 3 (GSK3) inhibitor, for 24±1 hours in chemically defined medium CDM3 basal medium (RPMI 1640 Thermo Fisher Scientific, Waltham, Mass., USA) supplemented with L-ascorbic acid and human serum albumin). […] Samples were run on a BD FACSAriaTM Illu Flow Cytometer (BD Biosciences, San Jose, Calif.), and data were analyzed with FlowJo (BD Biosciences, San Jose, Calif.).

Q: `COc1cc2c(cc1OC)CC(=O)N(CCCN(C)C[C@H]1Cc3cc(OC)c(OC)cc31)CC2` [Ivabradine] was tested. Which “Effect on spontaneous activity (share of microtissues, in words)” value ([1]; atrial microtissues, 1 μM, no electrical stimulation) did it give?
A: eliminate spontaneous activity in more than half of the atrial microtissues

Q: And the “Effect on spontaneous action potential events (in words)” value ([1]; atrial microtissues, all tested dosages)?
A: significantly reduced spontaneous action potential events

Q: And the “Effect on spontaneous activity (in words)” value ([1]; atrial microtissues, higher dosages)?
A: loss of spontaneous activity

Q: And the “Voltage trace events (in words)” value ([1]; small subset of spontaneous atrial microtissues, 5 μM, recovered with 1 Hz pacing)?
A: events resembling failed depolarization

Q: Which APD30 ([2]; 1 μM) does the source give for `Nc1ccncc1` [4-Aminopyridine] here?
A: 75.2 ± 11.4 ms

Q: What about the APD50 ([2]; 1 μM) of the same compound?
A: 95.7 ± 12.9 ms

Q: What about the APD80 ([2]; 1 μM) of the same compound?
A: 121.4 ± 16.2 ms

Q: What about the APDMxR ([2]; 1 μM) of the same compound?
A: 126.6 ± 15.8 ms

Q: And the APDTri/APDMxR ([2]; 1 μM)?
A: 0.24 ± 0.03

Q: And the “Rise Time” value ([2]; 1 μM, n=3 batches)?
A: 11.9 ± 2.6 ms

Q: And the APD30 ([2]; 3 μM)?
A: 75.2 ± 11.4 ms

Q: What about the APD50 ([2]; 3 μM) of the same compound?
A: 97.5 ± 11.4 ms

Q: What about the APD80 ([2]; 3 μM) of the same compound?
A: 123.5 ± 14.7 ms

Q: What about the APDMxR ([2]; 3 μM) of the same compound?
A: 128.3 ± 12.9 ms

Q: What about the APDTri/APDMxR ([2]; 3 μM) of the same compound?
A: 0.24 ± 0.03

Q: What about the “Rise Time” value ([2]; 3 μM) of the same compound?
A: 11.8 ± 2.2 ms

Q: And the “Change of rise time and APDTri (in words)” value ([2]; 100 μM)?
A: significant increase

Q: And the APD30 ([2]; 100 μM)?
A: 84.0 ± 10.6 ms

Q: And the APD50 ([2]; 100 μM)?
A: 104.8 ± 12.0 ms

Q: What about the APD80 ([2]; 100 μM) of the same compound?
A: 129.9 ± 15.9 ms

Q: And the APDMxR ([2]; 100 μM)?
A: 136.6 ± 14.6 ms

Q: And the APDTri/APDMxR ([2]; 100 μM)?
A: 0.23 ± 0.03

Q: And the “Rise Time” value ([2]; 100 μM)?
A: 14.0 ± 3.7 ms

Q: And the “Change of APD30, APD50, APD80 and APDMxR (in words)” value ([2]; increasing doses (1, 3, 100 μM))?
A: significantly prolonged

Q: And the APD30 ([3]; 1 μM)?
A: 244.6 ± 38.4 ms

Q: What about the APD50 ([3]; 1 μM) of the same compound?
A: 287.8 ± 49.9 ms

Q: And the APD80 ([3]; 1 μM)?
A: 329.6 ± 50.6 ms

Q: And the APDTri/APDMxR ([3]; 1 μM)?
A: 0.09 ± 0.01′

Q: And the “Rise Time” value ([3]; 1 μM)?
A: 6.9 ± 1.9 ms

Q: What about the APD30 ([3]; 3 μM) of the same compound?
A: 233.3 ± 35.8 ms

Q: And the APD50 ([3]; 3 μM)?
A: 275.7 ± 47.7 ms

Q: And the APD80 ([3]; 3 μM)?
A: 321.6 ± 54.1 ms

Q: What about the APDMxR ([3]; 3 μM) of the same compound?
A: 307.5 ± 55.2 ms

Q: And the APDTri/APDMxR ([3]; 3 μM)?
A: 0.10 ± 0.02

Q: And the “Rise Time” value ([3]; 3 μM)?
A: 7.1 ± 2.4 ms

Q: What about the APD30 ([3]; 100 μM) of the same compound?
A: 236.7 ± 32.5 ms

Q: What about the APD50 ([3]; 100 μM) of the same compound?
A: 280.0 ± 44.0 ms

Q: And the APD80 ([3]; 100 μM)?
A: 325.6 ± 48.5 ms

Q: And the APDMxR ([3]; 100 μM)?
A: 312.5 ± 51.7 ms

Q: And the APDTri/APDMxR ([3]; 100 μM)?
A: 0.10 ± 0.02

Q: What about the “Rise Time” value ([3]; 100 μM) of the same compound?
A: 7.5 ± 2.6 ms

Q: What about the “Change of APD30, APD50, APD80 and APDMxR (in words)” value ([3]; all dosages) of the same compound?
A: No significant changes

Q: For `CC1=C(/C=C/C(C)=C/C=C/C(C)=C/C(=O)O)C(C)(C)CCC1` [Retinoic acid], which “MLC2v+ expression of cardiomyocytes” value [4] is on record?
A: 18±5
